The results in this text go back to PubChem BioAssay (NCI).

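Each compound was tested at five concentrations against cells in 96-well plates for 48 hours. The concentration for full growth arrest is given as TGI.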

Among the test systems are A549 NSCLC; MDA-MB-435; MCF7 breast; U251 CNS; COLO 205 colon; K-562 leukemia; A498 renal; OVCAR-3 ovarian; SW-620 colon; BT-549 breast.
Common to all, as to experiment: DTP human tumour cell line panel, 48 h

The term TGI denotes the concentration giving total growth inhibition. On to `CC(C)(C)c1cc(C2COC(c3cc(C(C)(C)C)c(O)c(C(C)(C)C)c3)CO2)cc(C(C)(C)C)c1O` (stereo not drawn), for which the total growth inhibition concentration (TGI) in the experiment on A549 NSCLC was greater than 100 µM; in the experiment on MDA-MB-435, greater than 100 µM; in the experiment with MCF7 breast it was greater than 100 µM; with U251 CNS, greater than 100 µM; in the experiment with COLO 205 colon it was 96.7 µM; with K-562 leukemia, greater than 100 µM. Further, the concentration for total growth inhibition (TGI) in the experiment on A498 renal, in the experiment with OVCAR-3 ovarian, in the experiment on SW-620 colon and in the experiment on BT-549 breast was greater than 100 µM in each case.
For `CC[C@@H](/C=C\CCC(=O)C[C@H](O)CCC=C(C)C)O[Si](C(C)C)(C(C)C)C(C)C`, the concentration for total growth inhibition (TGI) with A549 NSCLC, with MDA-MB-435, in the experiment with MCF7 breast, with U251 CNS, in the experiment with COLO 205 colon and in the experiment on K-562 leukemia was greater than 100 µM throughout. Further, the TGI with A498 renal, with OVCAR-3 ovarian, in the experiment on SW-620 colon and in the experiment on BT-549 breast was greater than 100 µM throughout.
Take `CC(C)[C@@H]1ON1C(C)c1ccccc1` (stereo partly drawn): the TGI with A549 NSCLC, in the experiment with MDA-MB-435, in the experiment with MCF7 breast, in the experiment with U251 CNS, in the experiment with COLO 205 colon and in the experiment with K-562 leukemia was greater than 100 µM in each case. Besides, the TGI with A498 renal, with OVCAR-3 ovarian, with SW-620 colon and in the experiment on BT-549 breast was greater than 100 µM throughout.
In the case of `CCOc1cc(NC(C)=O)ccc1C(=O)NN1C(=O)C(Cl)C1c1ccco1` (stereo not drawn), the TGI came out at 38.8 µM in the experiment with A549 NSCLC; 32.3 µM in the experiment on MDA-MB-435; 26.8 µM in the experiment on MCF7 breast; 38.3 µM with COLO 205 colon; 51.3 µM with K-562 leukemia; 30.8 µM in the experiment on A498 renal. The TGI with OVCAR-3 ovarian is 32 µM; in the experiment on SW-620 colon it was greater than 100 µM; with BT-549 breast it was 30.4 µM.
`C/C(=C/CC[C@]1(CO)CC[C@]2(CO)[C@H](CC[C@@H]3[C@@]4(C)CC[C@H](OC5OCC(O)C(O)C5OC5OC(CO)C(O)C(O)C5O)C(C)(C)[C@@H]4CC[C@]32C)[C@H]1O)CO` (stereo partly drawn): the TGI in the experiment on A549 NSCLC, in the experiment on MDA-MB-435, in the experiment on MCF7 breast, in the experiment on U251 CNS, in the experiment with COLO 205 colon and with K-562 leukemia was greater than 100 µM each time. For the same compound, the TGI with A498 renal, in the experiment with OVCAR-3 ovarian, in the experiment on SW-620 colon and with BT-549 breast was greater than 100 µM throughout.
On to `CCOC(=O)c1ccc(C(=O)C(C(C)=O)C(=O)OC(C)(C)C)[nH]1` (stereo not drawn), for which the TGI with A549 NSCLC, in the experiment on MDA-MB-435, in the experiment on MCF7 breast, in the experiment with U251 CNS, in the experiment with COLO 205 colon and in the experiment on K-562 leukemia was greater than 100 µM throughout. Besides, the concentration for total growth inhibition (TGI) with A498 renal, in the experiment with OVCAR-3 ovarian, in the experiment on SW-620 colon and with BT-549 breast was greater than 100 µM in each case.
As to `C=CCOC(=O)C1C2OC3(C(C(=O)OC)=C2C(=O)OC)c2ccccc2CCC13` (stereo not drawn), the concentration for total growth inhibition (TGI) in the experiment with A549 NSCLC, with MDA-MB-435, in the experiment on MCF7 breast, in the experiment with U251 CNS, in the experiment on COLO 205 colon and in the experiment on K-562 leukemia was greater than 10 µM in each case. The concentration for total growth inhibition (TGI) in the experiment with A498 renal, in the experiment on OVCAR-3 ovarian, with SW-620 colon and in the experiment with BT-549 breast was greater than 10 µM in each case.
Turning to `Cc1ccc2c(=O)cc(-c3ccc(-c4ccccc4)s3)[nH]c2n1`, the TGI in the experiment with A549 NSCLC, in the experiment on MDA-MB-435, in the experiment on MCF7 breast, in the experiment on U251 CNS, with COLO 205 colon and in the experiment on K-562 leukemia was greater than 100 µM each time. Besides, the total growth inhibition concentration (TGI) with A498 renal was 72.7 µM; in the experiment on OVCAR-3 ovarian it was greater than 100 µM; with SW-620 colon, greater than 100 µM; with BT-549 breast, greater than 100 µM.
`CC(C)(CC(O)C#N)/[N+]([O-])=[N+](\[O-])C(C)(C)CC(O)C#N` (stereo not drawn): the TGI is greater than 100 µM with A549 NSCLC; greater than 100 µM with MDA-MB-435; 65.5 µM with MCF7 breast; greater than 100 µM with U251 CNS; 31.7 µM in the experiment with COLO 205 colon; 42.5 µM in the experiment on K-562 leukemia. Moreover, the TGI with A498 renal is greater than 100 µM; with OVCAR-3 ovarian it was 69.2 µM; with SW-620 colon, 34.1 µM; in the experiment on BT-549 breast, 78.8 µM.
Take `COC(=O)c1cnn2c1n[n+]([O-])c1ccccc12`: the concentration for total growth inhibition (TGI) in the experiment with A549 NSCLC, with MDA-MB-435, with MCF7 breast, in the experiment on U251 CNS, with COLO 205 colon and in the experiment on K-562 leukemia was greater than 100 µM in each case. For the same compound, the total growth inhibition concentration (TGI) in the experiment with A498 renal, in the experiment with OVCAR-3 ovarian, in the experiment on SW-620 colon and in the experiment on BT-549 breast was greater than 100 µM each time.
For `COc1cc(C(c2ccc3c(c2)OCO3)N2C(=O)CCC2C(=O)O)cc(OC)c1OC` (stereo not drawn), the concentration for total growth inhibition (TGI) in the experiment with A549 NSCLC, in the experiment with MDA-MB-435, with MCF7 breast, with U251 CNS, with COLO 205 colon and in the experiment on K-562 leukemia was greater than 100 µM each time. The TGI with A498 renal, in the experiment with OVCAR-3 ovarian, in the experiment with SW-620 colon and in the experiment with BT-549 breast was greater than 100 µM in each case.
For `CCC[C@H](C)C[C@H](C)C[C@H](C)/C=C(\C)[C@@H](O)[C@@H](C)C(=O)CC`, the total growth inhibition concentration (TGI) was 39.4 µM in the experiment with A549 NSCLC; 35.7 µM with MDA-MB-435; 42.7 µM with MCF7 breast; 44.7 µM in the experiment on U251 CNS; 38 µM in the experiment with K-562 leukemia; 42.6 µM in the experiment on A498 renal. Also, the TGI with OVCAR-3 ovarian worked out at 34.4 µM; with SW-620 colon, 43 µM; in the experiment with BT-549 breast, 44.1 µM.
On to `Cc1ccc(/C(O)=C/C(=O)C(=O)NN=C(c2ccccc2)c2ccccc2)cc1`, for which the TGI with A549 NSCLC, in the experiment on MDA-MB-435, with MCF7 breast, in the experiment with U251 CNS, with COLO 205 colon and in the experiment on K-562 leukemia was greater than 100 µM in each case. In addition, the TGI with A498 renal, with OVCAR-3 ovarian, with SW-620 colon and in the experiment on BT-549 breast was greater than 100 µM throughout.
